Assay results: patent publication US6552010B1 (Genelabs Technologies, Inc., priority 1999, dated 2003)

What was measured:
[1] = Uptake and absorption of DHEA polymorph preparations upon oral administration
[2] = Stability of DHEA polymorph preparations under ambient conditions
SLE patients [3] = assay: Clinical trial: effect of DHEA treatment on SLE flares; format: in vivo, human; conditions: for Patients with at least one flare, patients/total / Patients with at least one flare, percent: 200 mg DHEA per day orally
Description: A clinical trial was conducted to determine the effect of DHEA treatment on SLE flares. An SLE flare is a significant new clinical manifestation of the disease (i.e., one that was not previously present in the patient or not previously as severe) and/or a clinical intervention. Table 6 identifies the clinical findings or interventions that were scored as flares in the present study. Any patient having at least one of these finding or interventions was scored as having a flare.
(§1) Clinical trial results were analyzed for each group (placebo and DHEA-treated) as a whole (“per-protocol”), as well as broken down into three subgroups: all patients with SLEDAI values greater than 2 (“active SLE”), and patients having SLEDAI values greater than 2 and receiving corticosteroids and/or immunosuppressives (“more severe SLE”).
(§2) Patients received 200 mg DHEA per day, administered orally in capsule form, or with a non-drug capsule (placebo). Mean duration of the treatment for each group was somewhat higher for the placebo group (308.4 days for placebo vs 288.4 days for DHEA, but median durations were almost the identical (362 vs. 359 days, respectively.).
At about 200 days of treatment, incidence of flare is at least about 5% lower in the treated patients, and from this point on, the difference in flare incidence between the treated and placebo patients grows to at least about 10%.

SLE patients [4] = assay: Clinical trial: percent responders (weighted average change from baseline, no clinical deterioration); format: in vivo, human; conditions: 200 mg DHEA per day orally
Description: as §1, §2
The last three columns of the table show the results of the study for patients experiencing at least one flare during the study.

SLE patients [5] = assay: Clinical trial: responders by window analysis of SLEDAI, SLAM, Patient VAS and KFSS; format: in vivo, human; conditions: for Responders (3% window), number of patients / Responders (3% window), percent / Responders (5% window), number of patients / Responders (5% window), percent / Responders (10% window), number of patients / Responders (10% window), percent: 200 mg DHEA per day orally
Description: For each of the disease activity variables (SLEDAI and SLAM) and constitutional symptom variables (Patient VAS and KFSS), the value of interest for each patient is determined as the difference between a pretreatment baseline value, calculated as the mean of two baseline values, taken prior to any treatment with DHEA), and values taken during treatment, calculated as the mean of all values obtained during on-treatment scheduled visits, e.g., 13, 26, 39, and 52 weeks of treatment.
For each of the variables, an improvement in the variable is defined as either (i) no change in the variable or (ii) a decrease in the variable. Thus, for example, an improvement in a baseline SLEDAI score of 5.00 would be any value 5.00 or less. A change in a variable that represents a worsening of the state or condition is any increase in the measured value.
Thus, for a baseline SLEDAI value of 5.0, and a 3% cap, the maximum allowed increase in SLEDAI value, for classification as a 3% responder is 0.15
The mean baseline scores represent the mean of two value determinations made prior to treatment.
Each group, in turn, can be broken down into three subgroups: (I) total patient population (II) all patients with SLEDAI values greater than 2, and (III) patients having SLEDAI values greater than 2 and currently being treated with prednisone (at dose greater than 2 mg/prednisone /day), where the number of patients in each subgroup is indicated by N in the Table 5.
as §2, with “Treatment was with” for “Patients received”, “(308” for “(308.4”
The three columns in the table represent total of the three subgroups for both the placebo and treatment group. The three rows represent responders in which an improvement (no change or decrease in value) in three the three of the four variables was observed and an increase in the fourth variable of no more than 3% (first row), 5% (second row), and 10% (third row) of the pretreatment baseline value.

[6] = Active SLE (SLEDAI > 2 at baseline)
[7] = More Severe SLE (SLEDAI > 2 and receiving corticosteroids and/or immunosuppressives at baseline)
[8] = Group II: All patients with SLEDAI > 2
[9] = Group II: All patients with SLEDAI > 2, N = 132
[10] = Group III: All patients with SLEDAI > 2, Pred > 0
[11] = Group III: All patients with SLEDAI > 2, Pred > 0, N = 73

## C[C@]12CC[C@H](O)CC1=CC[C@@H]1[C@@H]2CC[C@]2(C)C(=O)CC[C@@H]12 [DHEA form I, dehydroepiandrosterone]
[1]
  Uptake by the GI tract: good uptake by the GI tract
[2]
  Stability: highly stable under ambient conditions

## C[C@]12CC[C@H](O)CC1=CC[C@@H]1[C@@H]2CC[C@]2(C)C(=O)CC[C@@H]12 [DHEA, dehydroepiandrosterone]
SLE patients [3]; [6]
  Patients with at least one flare, patients/total: (31/132)
  Patients with at least one flare, percent: 24%
SLE patients [3]; FIG. 1, active SLE patients, compared to the placebo group
  Time of treatment at which reduction of the risk of flare begins: about 85 days
SLE patients [3]; FIG. 1, at about 200 days of treatment
  Incidence of flare lower in treated patients than placebo: at least 5%
SLE patients [3]; FIG. 1, grows to this after about 200 days of treatment
  Difference in flare incidence between treated and placebo patients: at least 10%
SLE patients [3]; [7]
  Patients with at least one flare, patients/total: (21/80)
  Patients with at least one flare, percent: 26%
SLE patients [3]; Per Protocol population
  Patients with at least one flare, patients/total: (37/170)
  Patients with at least one flare, percent: 22%
SLE patients [3]; Table 8 study, effect increased with severity of disease
  Effect on occurrence of flares: reduced the occurrence of flares
SLE patients [4]; [6]
  Responders, patients/total: (87/132)
  Responders, percent: 66%
SLE patients [4]; [7]
  Responders, patients/total: (51/80)
  Responders, percent: 64%
SLE patients [4]; Per Protocol population
  Responders, patients/total: (99/170)
  Responders, percent: 58%
SLE patients [5]; Group I: All patients
  Improvement over placebo, responders (3% window): 39.8%
  Improvement over placebo, responders (5% window): 32.1%
  Improvement over placebo, responders (10% window): 38.0%
SLE patients [5]; Group I: All patients, N = 170
  Responders (3% window), number of patients: 77
  Responders (3% window), percent: 45.3%
  Responders (5% window), number of patients: 79
  Responders (5% window), percent: 46.5%
  Responders (10% window), number of patients: 92
  Responders (10% window), percent: 54.1%
SLE patients [5]; [8]
  Improvement over placebo, responders (3% window): 54.4%
  Improvement over placebo, responders (5% window): 47.1%
  Improvement over placebo, responders (10% window): 51.1%
SLE patients [5]; [9]
  Responders (3% window), number of patients: 72
  Responders (3% window), percent: 54.5%
  Responders (5% window), number of patients: 73
  Responders (5% window), percent: 55.3%
  Responders (10% window), number of patients: 84
  Responders (10% window), percent: 63.6%
SLE patients [5]; [10]
  Improvement over placebo, responders (3% window): 64.3%
  Improvement over placebo, responders (5% window): 68.6%
  Improvement over placebo, responders (10% window): 82.2%
SLE patients [5]; [11]
  Responders (3% window), number of patients: 39
  Responders (3% window), percent: 53.4%
  Responders (5% window), number of patients: 40
  Responders (5% window), percent: 54.8%
  Responders (10% window), number of patients: 45
  Responders (10% window), percent: 61.6%

## C[C@]12CC[C@H](O)CC1=CC[C@@H]1[C@@H]2CC[C@]2(C)C(=O)CC[C@@H]12 [DHEA form II, dehydroepiandrosterone]
[1]
  Rate of absorption: rapid rate of absorption (greater than the form I polymorph)
  Uptake by the GI tract: good uptake by the GI tract
[2]
  Stability: stable under ambient conditions
